Molecular target: T1, PPAR gamma (Homo sapiens, UniProt P37231)
T1 construct: were incubated with GST-tagged PPAR gamma LBD domain (Invitrogen); purchased Invitrogen
T1 sequence (P37231 238-503 limits assumed): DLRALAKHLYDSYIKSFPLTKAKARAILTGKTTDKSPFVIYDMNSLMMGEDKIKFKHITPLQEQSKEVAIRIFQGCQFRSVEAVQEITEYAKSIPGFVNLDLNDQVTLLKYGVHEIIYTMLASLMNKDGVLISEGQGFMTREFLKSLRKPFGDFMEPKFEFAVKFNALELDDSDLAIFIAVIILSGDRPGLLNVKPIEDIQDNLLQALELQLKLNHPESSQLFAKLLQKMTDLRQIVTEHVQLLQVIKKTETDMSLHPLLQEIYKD
Test: PamChip microarray binding of PPAR gamma LBD to 48 co-regulator derived peptides
Type: biochemical
Details: 1E-3.7 M ligand compared to array without ligand
Experimental: A microarray set-up was prepared comprising 48 peptides immobilized, i.e., a set of 48 co-regulator-derived motifs corresponding to SEQ ID NOs 1, 3-13, 15-46, and 50-53. In this experiment each peptide was present once on the array and at a single peptide concentration (1E-1 M spotting concentration). Preparation of these chips was as described in Example 1. Twelve wells of a 96 well plate (FIG. 2A(a)), each well comprising the same peptide microarray, were incubated with GST-tagged PPAR gamma LBD domain (Invitrogen), and 11 different concentrations of ligand and 1 control (absence of ligand). […]
FIG. 2A(b) represents the top view of a row of wells in a 96-well plate (FIG. 2A(a)), showing the fluorescence results obtained for the PAR gamma interaction, induced by GW1929, with a the 48 peptide motives. A magnification is shown of the fluorescence image of the microarray incubated with the highest concentration (1E-3.7 M) of GW1929. […] However, when the effect of GW1929 is read out on peptide 45 (SEQ ID NO. 45), derived from PPRB (PPAR binding protein), this ligand is characterized as a binding agonist. […] As said, for all peptides an EC50 value could be determined, but in FIG. 3 only the values that could be determined accurately (regression coefficient of the fit better than 0.7) are represented.

binding of PPAR gamma to peptide 31 (SEQ ID NO. 31, NCOR1): decreased binding | binding of PPAR gamma to peptide 45 (SEQ ID NO. 45, PPRB): increase binding
Substance: GW1929

From US9128087B2, “Nuclear receptor assay” (PamGene B.V., priority 2006, dated 2015)
